Source: PubChem BioAssay AID248 (DTP/NCI, 2004)
Several values for one entry are separate records, joined by “and”; a condition that tells them apart may be missing. Equal values may be shown once. Toxic doses and inconclusive results are not listed. Cut-off read from the data, not from the text of the source: active = T/C of 150% or more; inactive = T/C below 125%.

System: L1210 leukemia ip in BDF1 mice, survival T/C
Test: NCI In Vivo Anticancer Drug Screen. Data for tumor model L1210 Leukemia (intraperitoneal) in B6D2F1 (BDF1) mice
Conditions: endpoint: mean survival time, higher = longer survival
Outline: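 Each compound was tested against a transplantable tumor grown in mice. The endpoint was survival, with treated animals benchmarked against vehicle controls as a simple ratio.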

[1] = dose: 100.0 mg/kg/injection, schedule: Q01DX001 (ip), vehicle: carboxymethylcellulose (CMC)
[2] = dose: 200.0 mg/kg/injection, schedule: Q01DX001 (ip), vehicle: carboxymethylcellulose (CMC)
[3] = dose: 100.0 mg/kg/injection, schedule: Q04DX003 (ip), vehicle: saline with Tween-80
[4] = dose: 200.0 mg/kg/injection, schedule: Q04DX003 (ip), vehicle: saline with Tween-80
[5] = dose: 100.0 mg/kg/injection, schedule: Q04DX002 (ip), vehicle: saline with Tween-80
[6] = dose: 200.0 mg/kg/injection, schedule: Q04DX002 (ip), vehicle: saline with Tween-80
[7] = dose: 400.0 mg/kg/injection, schedule: Q04DX002 (ip), vehicle: saline with Tween-80
[8] = dose: 50.0 mg/kg/injection, schedule: Q01DX009 (ip), vehicle: saline
[9] = dose: 100.0 mg/kg/injection, schedule: Q01DX009 (ip), vehicle: saline
[10] = dose: 100.0 mg/kg/injection, schedule: Q04DX003 (ip), vehicle: saline
[11] = dose: 200.0 mg/kg/injection, schedule: Q01DX009 (ip), vehicle: saline
[12] = dose: 200.0 mg/kg/injection, schedule: Q04DX003 (ip), vehicle: saline
[13] = dose: 100.0 mg/kg/injection, schedule: Q01DX009 (ip), vehicle: saline with Tween-80
[14] = dose: 200.0 mg/kg/injection, schedule: Q01DX009 (ip), vehicle: saline with Tween-80
[15] = dose: 400.0 mg/kg/injection, schedule: Q01DX009 (ip), vehicle: saline with Tween-80
[16] = dose: 400.0 mg/kg/injection, schedule: Q04DX003 (ip), vehicle: saline with Tween-80
[17] = dose: 100.0 mg/kg/injection, schedule: Q04DX003 (ip), vehicle: Klucel (hydroxypropylcellulose) (HPC)
[18] = dose: 200.0 mg/kg/injection, schedule: Q04DX003 (ip), vehicle: Klucel (hydroxypropylcellulose) (HPC)
[19] = dose: 400.0 mg/kg/injection, schedule: Q04DX003 (ip), vehicle: Klucel (hydroxypropylcellulose) (HPC)
[20] = dose: 100.0 mg/kg/injection, schedule: Q04DX003 (ip), vehicle: acetone
[21] = dose: 200.0 mg/kg/injection, schedule: Q04DX003 (ip), vehicle: acetone
[22] = dose: 400.0 mg/kg/injection, schedule: Q04DX003 (ip), vehicle: acetone
[23] = dose: 400.0 mg/kg/injection, schedule: Q04DX003 (ip), vehicle: saline
[24] = dose: 100.0 mg/kg/injection, schedule: Q01DX009 (ip), vehicle: Klucel (hydroxypropylcellulose) (HPC)
[25] = dose: 200.0 mg/kg/injection, schedule: Q01DX009 (ip), vehicle: Klucel (hydroxypropylcellulose) (HPC)
[26] = dose: 400.0 mg/kg/injection, schedule: Q01DX009 (ip), vehicle: Klucel (hydroxypropylcellulose) (HPC)

Measured: T/C

CCOC(=O)CCC(=O)NNc1ccccc1
inactive: dose: 50.0 mg/kg/injection, schedule: Q01DX001 (ip), vehicle: carboxymethylcellulose (CMC) 106 % of control | [1] 100 % of control | [2] 102 % of control | dose: 400.0 mg/kg/injection, schedule: Q01DX001 (ip), vehicle: carboxymethylcellulose (CMC) 106 % of control

O=c1[nH]c(=O)c2ncsc2[nH]1
inactive: [3] 103 % of control | [4] 110 % of control

Cc1c(Cl)cc(C(C)C)c(O)c1CN1CCOCC1
inactive: dose: 222.0 mg/kg/injection, schedule: Q01DX Z (ip), vehicle: methylcellulose (MC) 96 % of control | dose: 333.0 mg/kg/injection, schedule: Q01DX Z (ip), vehicle: methylcellulose (MC) 109 % of control | dose: 500.0 mg/kg/injection, schedule: Q01DX Z (ip), vehicle: methylcellulose (MC) 102 % of control

O=C1CSC=C(c2ccccc2)O1
inactive: [5] 115 % of control | [6] 101 % of control | [7] 112 % of control

CC(C)(C)NC(=O)CCC(CC(=O)NC(C)(C)C)S(=O)(=O)O (stereo not given)
inactive: [8] 97 % of control | [9] 97 % of control | [10] 98 % of control | [11] 90 % of control | [12] 95 % of control

CCCCCCCCCCCC(=O)Nc1ccc2ccccc2c1
inactive: [13] 93 % of control and 97 % of control | [5] 105 % of control and 107 % of control | [3] 105 % of control | [14] 107 % of control and 88 % of control | [6] 93 % of control and 89 % of control | [4] 94 % of control | [15] 96 % of control and 90 % of control | [7] 94 % of control and 117 % of control | [16] 95 % of control

COc1cc(N=Nc2ccccc2C(=O)O)ccc1O
inactive: [13] 96 % of control | [3] 96 % of control | [14] 104 % of control | [4] 101 % of control | [16] 101 % of control

NCCc1cc(O)c(O)c(S(=O)(=O)c2ccc(N)cc2)c1
inactive: dose: 75.0 mg/kg/injection, schedule: Q01DX009 (ip), vehicle: saline 107 % of control | dose: 150.0 mg/kg/injection, schedule: Q01DX009 (ip), vehicle: saline 105 % of control

CC(C)C1=CC(=O)OC1C(O)C(C)C1CCC2C3CC=C4CC(O)CCC4(C)C3CCC12C (stereo not given)
inactive: [17] 102 % of control | [18] 96 % of control | [19] 94 % of control

CCOC(=O)N1Cc2cc3cc(OC)c(OC)cc3nc2C1
inactive: [13] 109 % of control | [3] 106 % of control | [14] 94 % of control | [4] 97 % of control | [15] 108 % of control | [16] 96 % of control

Clc1ccccc1Nc1nnnc2ccccc12
inactive: [8] 91 % of control | [9] 95 % of control | [20] 96 % of control | [11] 90 % of control | [21] 100 % of control | [22] 98 % of control

CCCCCCC(=O)/C=C/c1ccc(Cl)cc1
inactive: dose: 100.0 mg/kg/injection, schedule: Q01DX009 (ip), vehicle: acetone 93 % of control | [3] 96 % of control | dose: 200.0 mg/kg/injection, schedule: Q01DX009 (ip), vehicle: acetone 90 % of control | [4] 98 % of control | dose: 400.0 mg/kg/injection, schedule: Q01DX009 (ip), vehicle: acetone 92 % of control | [16] 93 % of control

COc1cc([N+](=O)[O-])c(C)cc1Nc1ccc(OC)c(OC)c1
inactive: [13] 105 % of control | [3] 98 % of control | [14] 96 % of control | [4] 93 % of control | [15] 96 % of control | [16] 92 % of control

COc1cc(/C=N\NC(=O)CNC(=O)Nc2cccc(Cl)c2)ccc1O
inactive: [13] 90 % of control | [14] 87 % of control

Cc1ccc(CO)cc1
inactive: [9] 97 % of control | [10] 106 % of control | [12] 114 % of control | dose: 400.0 mg/kg/injection, schedule: Q01DX009 (ip), vehicle: saline 92 % of control | [23] 106 % of control

CCCCC(C)(O)C(F)(F)F (stereo not given)
inactive: dose: 100.0 mg/kg/injection, schedule: Q01DX001 (ip), vehicle: steriod suspending solution 96 % of control | dose: 200.0 mg/kg/injection, schedule: Q01DX001 (ip), vehicle: steriod suspending solution 91 % of control | dose: 400.0 mg/kg/injection, schedule: Q01DX001 (ip), vehicle: steriod suspending solution 100 % of control

N#CC(N)=NC1CCC(C2CCC(N)CC2)CC1 (stereo not given)
inactive: [24] 97 % of control | [17] 107 % of control | [25] 97 % of control | [18] 94 % of control | [26] 98 % of control | [19] 97 % of control

COc1ccc(NC(=O)c2c(Br)c(Br)c(Br)c(Br)c2C(=O)O)c(Cl)c1
inactive: [24] 96 % of control | [25] 93 % of control

CC[C@@H](C(=O)[C@@H](C)[C@@H](O)[C@H](C)CCc1ccc(C)c(O)c1C(=O)O)[C@H]1O[C@](CC)([C@H]2CC[C@](O)(CC)[C@H](C)O2)C[C@@H]1C
inactive: dose: 3.12 mg/kg/injection, schedule: Q01DX009 (ip), vehicle: Klucel (hydroxypropylcellulose) (HPC) 93 % of control | dose: 6.25 mg/kg/injection, schedule: Q01DX009 (ip), vehicle: Klucel (hydroxypropylcellulose) (HPC) 96 % of control | dose: 12.5 mg/kg/injection, schedule: Q01DX009 (ip), vehicle: Klucel (hydroxypropylcellulose) (HPC) 94 % of control | dose: 25.0 mg/kg/injection, schedule: Q01DX009 (ip), vehicle: Klucel (hydroxypropylcellulose) (HPC) 94 % of control

CCCCCCOC(=O)C(N)Cc1ccc(OC)c(N(CCCl)CCCl)c1 (stereo not given)
inactive: dose: 12.5 mg/kg/injection, schedule: Q01DX001 (ip), vehicle: saline 93 % of control | dose: 15.0 mg/kg/injection, schedule: Q01DX001 (ip), vehicle: saline 94 % of control

ClCCCNCc1ccc(-c2c3ccccc3cc3c2ccc2ccccc23)cc1
inactive: [1] 95 % of control | [2] 101 % of control

CCCCCCCCCCCCSC(SCCCCCCCCCCCC)c1ccc(OCC(=O)O)cc1
inactive: dose: 25.0 mg/kg/injection, schedule: Q04DX003 (ip), vehicle: saline 105 % of control | dose: 50.0 mg/kg/injection, schedule: Q04DX003 (ip), vehicle: saline 96 % of control | [24] 97 % of control | [10] 100 % of control | [25] 94 % of control | [12] 102 % of control | [26] 97 % of control | [23] 96 % of control

CCS(=O)c1c(Cl)c(Cl)c(Cl)c(Cl)c1Cl (stereo not given)
inactive: [24] 102 % of control | [25] 108 % of control | [26] 95 % of control

O=C(OCC(OC(=O)c1ccccc1)C(OC(=O)c1ccccc1)C(OC(=O)c1ccccc1)C(OC(=O)c1ccccc1)c1cnn(-c2ccccc2)n1)c1ccccc1 (stereo not given)
inactive: [20] 87 % of control | [21] 100 % of control | [22] 90 % of control
